Legend:
[1] = molecular target: T1, human PPARgamma-ligand binding domain (LBD) (Homo sapiens, UniProt P37231); assay: SPA assay: displacement of 3H-labelled rosiglitazone from GST-PPARgamma-LBD; conditions: NSB 217, Bmax 911
T1 sequence (P37231 205-505): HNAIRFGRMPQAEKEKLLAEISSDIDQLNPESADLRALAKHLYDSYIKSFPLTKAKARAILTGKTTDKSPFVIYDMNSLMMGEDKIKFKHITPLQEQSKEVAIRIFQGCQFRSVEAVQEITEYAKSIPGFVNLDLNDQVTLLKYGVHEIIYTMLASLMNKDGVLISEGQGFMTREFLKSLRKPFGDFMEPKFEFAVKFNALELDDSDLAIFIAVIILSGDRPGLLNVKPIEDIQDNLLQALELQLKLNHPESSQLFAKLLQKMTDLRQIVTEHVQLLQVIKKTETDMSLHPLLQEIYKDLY
T1 sequence (P19793 220-461 partner limits assumed): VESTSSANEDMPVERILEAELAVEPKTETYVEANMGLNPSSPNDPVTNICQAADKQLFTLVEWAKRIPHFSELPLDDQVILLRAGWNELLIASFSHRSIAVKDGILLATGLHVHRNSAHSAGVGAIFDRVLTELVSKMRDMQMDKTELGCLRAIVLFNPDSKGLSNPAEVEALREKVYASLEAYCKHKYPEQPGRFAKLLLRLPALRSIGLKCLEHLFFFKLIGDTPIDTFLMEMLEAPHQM
Description: Protein containing the human PPARgamma-ligand binding domain (LBD) is prepared as a GST fusion protein in E.coli and purified by affinity chromatography. To do this, a DNA section which codes for the amino acids 205-505 of the human PPARgamma2 transcription factor (cf. Genbank entry U79012) is subcloned via the additionally introduced restriction cutting sites BamH I and Xho I into the expression vector pGEX-4T-1 (Amersham) and the sequence of the section is monitored. […] The bacteria are pelleted after the induction and frozen in batches in PBS, pH 7.4. After opening up in a French Press, the dissolved GST-PPARgamma-LBD-fusion protein is purified using a GSTrap column (Pharmacia). Elution is carried out by the addition of 20 mM reduced glutathione. The GST-PPARgamma-LBD-protein fractions are desalinated using a HiTrap desalting column (Pharmacia) and the protein concentration is determined using a standard assay. Protein containing the human RXRalpha ligand binding domain (LBD) is prepared as a His tag fusion protein in E.coli and purified by affinity chromatography. To do this a DNA section which codes for the amino acids 220-461 of the human RXRalpha transcription factor (cf. Genbank entry NM_002957, nt 729-1457) is subcloned via the additionally introduced restriction cutting sites BamH I and Not I into the expression vector pET28c (Novagen) and the sequence of the section is monitored. […] The bacteria are pelleted after the expression and frozen in batches in PBS, pH 7.4. After opening up in a French Press, the dissolved His-RXRalpha-LBD-fusion protein is purified using a HiTrap chelating column (Pharmacia). Elution is carried out using a 500 mM imidazole step. The His-RXRalpha-LBD protein fractions are desalinated using a HiTrap desalting column (Pharmacia) and the protein concentration is determined using a standard assay. A description of the SPA assay format can be found in Mukheriee R et al., J Steroid Biochem Mol Biol (2002) 81:217-225.

[2] = molecular target: T2, ligand binding domain of the human PPARgamma2 transcription factor (Gal4 DNA binding domain fusion) (Homo sapiens, UniProt P37231); assay: Luciferase activity in stably transformed PPARgamma reporter cell line (CHO-K1 clone 11); type: cell-based; conditions: 24 hours
T2 construct: codes for amino acids 205-505 of the human PPARgamma2 transcription factor; expressed in transfected cells
T2 sequence (P37231 205-505): T1 sequence (P37231 205-505)
Description: The resulting plasmid pFA-CMV/hPPARgamma2-LBD codes N-terminally of the PPARgamma-LBD in the same reading frame for a Gal4 DNA binding domain. In addition the plasmid codes for a neomycin resistance.
The cell line CHO-K1 (ATCC CCL-61) is cotransfected with the plasmids pFA-CMV/hPPARgamma2-LBD and pFR-Luc (Stratagene). pFR-Luc codes for the luciferase gene under the control of a five-times repeated yeast Gal4 binding site. The transfection is carried out with lipofectamine2000 in accordance with the manufacturer's instructions.
After six days' cultivation the cells are passaged and kept in culture for another 10 days. The resulting neomycin-resistant colonies are picked out under the microscope and transferred into 96 well-dishes and cultured.
The test substances are brought to 100 times the desired concentration with a suitable solvent, e.g. DMSO, and diluted 1:100 with the medium placed in the cell culture plate. The solvent used, e.g. DMSO, is used as the background control in the same concentration.
Luminescence is measured after a five minute wait using a Packard TopCount NXT. The luciferase activity is obtained by integrating the relative luciferase units (RLU) of the first ten seconds after the start of measurement.

Q: Which “SPA signal, bound 3H-rosiglitazone (MW)” value ([1]; 1.00E−04 M test substance) does the source give for `CCCc1nc2c(C)cc(-c3nc4ccccc4n3C)cc2n1Cc1ccc(-c2ccccc2C(=O)O)cc1` [telmisartan] here?
A: 545

Q: And the “SPA signal, bound 3H-rosiglitazone (MW)” value ([1]; 1.00E−05 M test substance)?
A: 703

Q: And the “SPA signal, bound 3H-rosiglitazone (MW)” value ([1]; 1.00E−06 M test substance)?
A: 818

Q: What about the “SPA signal, bound 3H-rosiglitazone (MW)” value ([1]; 1.00E−07 M test substance) of the same molecule?
A: 837

Q: What about the “SPA signal, bound 3H-rosiglitazone (MW)” value ([1]; 3.00E−05 M test substance) of the same molecule?
A: 691

Q: What about the “SPA signal, bound 3H-rosiglitazone (MW)” value ([1]; 3.00E−06 M test substance) of the same molecule?
A: 818

Q: What about the “SPA signal, bound 3H-rosiglitazone (MW)” value ([1]; 3.00E−07 M test substance) of the same molecule?
A: 802

Q: And the “luciferase activity (MW)” value ([2]; 1.00E−05 M)?
A: 61397 RLU

Q: And the “luciferase activity (MW)” value ([2]; 1.00E−06 M)?
A: 2859 RLU

Q: What about the “luciferase activity (MW)” value ([2]; 3.00E−05 M) of the same molecule?
A: 58790 RLU

Q: What about the “luciferase activity (MW)” value ([2]; 3.00E−06 M) of the same molecule?
A: 24498 RLU

Q: And the “luciferase activity (MW)” value ([2]; 3.00E−07 M)?
A: 760 RLU
